Reference: PubChem BioAssay AID2060326 (Molecular Pharmacology Branch, DTP, NCI, 2025)

Test system: MDA-MB-468 multi-cell spheroids, viability
Assay: Anticancer human tumor MDA-MB-468 cell line growth inhibition [IpAb];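 note: spheroids exposed to agents for seven days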;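 for viability, T/C: 100% = DMSO vehicle control viability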
Conditions: for IC50: curve of first compound; for viability, T/C: stronger effect = lower value
Outline: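 Multi-cell spheroids of 60% tumour cells, 25% HUVEC and 15% MSC in ultra-low-attachment U-bottom wells, treated with agents combined with ipatasertib or abemaciclib. Half-log ranges top out near clinical Cmax, or 10 microM when Cmax is unknown.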

[1] = second compound 0.01 µM, first compound 0.00316 µM
[2] = second compound 0.01 µM, first compound 0.01 µM
[3] = second compound 0.01 µM, first compound 0.0316 µM
[4] = second compound 0.01 µM, first compound 0.1 µM
[5] = second compound 0.0316 µM, first compound 0.00316 µM
[6] = second compound 0.0316 µM, first compound 0.01 µM
[7] = second compound 0.0316 µM, first compound 0.0316 µM
[8] = second compound 0.0316 µM, first compound 0.1 µM
[9] = second compound 0.1 µM, first compound 0.00316 µM
[10] = second compound 0.1 µM, first compound 0.01 µM
[11] = second compound 0.1 µM, first compound 0.0316 µM
[12] = second compound 0.1 µM, first compound 0.1 µM
[13] = second compound 0.316 µM, first compound 0.00316 µM
[14] = second compound 0.316 µM, first compound 0.01 µM
[15] = second compound 0.316 µM, first compound 0.0316 µM
[16] = second compound 0.316 µM, first compound 0.1 µM
[17] = second compound 1 µM, first compound 0.00316 µM
[18] = second compound 1 µM, first compound 0.01 µM
[19] = second compound 1 µM, first compound 0.0316 µM
[20] = second compound 1 µM, first compound 0.1 µM
[21] = second compound 0.01 µM, first compound 0.316 µM
[22] = second compound 0.01 µM, first compound 1 µM
[23] = second compound 0.01 µM, first compound 3.16 µM
[24] = second compound 0.01 µM, first compound 10 µM
[25] = second compound 0.0316 µM, first compound 0.316 µM
[26] = second compound 0.0316 µM, first compound 1 µM
[27] = second compound 0.0316 µM, first compound 3.16 µM
[28] = second compound 0.0316 µM, first compound 10 µM
[29] = second compound 0.1 µM, first compound 0.316 µM
[30] = second compound 0.1 µM, first compound 1 µM
[31] = second compound 0.1 µM, first compound 3.16 µM
[32] = second compound 0.1 µM, first compound 10 µM
[33] = second compound 0.316 µM, first compound 0.316 µM
[34] = second compound 0.316 µM, first compound 1 µM
[35] = second compound 0.316 µM, first compound 3.16 µM
[36] = second compound 0.316 µM, first compound 10 µM
[37] = second compound 1 µM, first compound 0.316 µM
[38] = second compound 1 µM, first compound 1 µM
[39] = second compound 1 µM, first compound 3.16 µM
[40] = second compound 1 µM, first compound 10 µM

SMILES | IC50 (second compound 0.01 µM) | IC50 (second compound 0.0316 µM) | IC50 (second compound 0.1 µM) | IC50 (second compound 0.316 µM) | IC50 (second compound 1 µM) | viability, T/C [3] | viability, T/C [4] | viability, T/C [7] | viability, T/C [8] | viability, T/C [11] | viability, T/C [12] | viability, T/C [15] | viability, T/C [16] | viability, T/C [19] | viability, T/C [20] | viability, T/C [21] | viability, T/C [22] | viability, T/C [25] | viability, T/C [26] | viability, T/C [29] | other results
CC(C)n1nc(-c2ccc3oc(N)nc3c2)c2c(N)ncnc21 + CCN1CCN(Cc2ccc(Nc3ncc(F)c(-c4cc(F)c5nc(C)n(C(C)C)c5c4)n3)nc2)CC1 | 11.5 nM | 10.4 nM | 11.2 nM | 14.7 nM | 11.6 nM | 24.9% | 10.6% | 26.4% | 11.6% | 26.9% | 10.2% | 35% | 14.5% | 34% | 20% |  |  |  |  |  | viability, T/C (second compound 0.01 µM, first compound 0.000316 µM): 90.8%; viability, T/C (second compound 0.01 µM, first compound 0.001 µM): 90%; viability, T/C [1]: 69.7%; viability, T/C [2]: 57.6%; viability, T/C (second compound 0.0316 µM, first compound 0.000316 µM): 95.6%; viability, T/C (second compound 0.0316 µM, first compound 0.001 µM): 81.4%; viability, T/C [5]: 67%; viability, T/C [6]: 56%; viability, T/C (second compound 0.1 µM, first compound 0.000316 µM): 99%; viability, T/C (second compound 0.1 µM, first compound 0.001 µM): 78.3%; viability, T/C [9]: 75.8%; viability, T/C [10]: 54%; viability, T/C (second compound 0.316 µM, first compound 0.000316 µM): 91.4%; viability, T/C (second compound 0.316 µM, first compound 0.001 µM): 88.3%; viability, T/C [13]: 86%; viability, T/C [14]: 54.7%; viability, T/C (second compound 1 µM, first compound 0.000316 µM): 75.2%; viability, T/C (second compound 1 µM, first compound 0.001 µM): 81.3%; viability, T/C [17]: 64.2%; viability, T/C [18]: 53.2%
CC1(C)CCC(CN2CCN(c3ccc(C(=O)NS(=O)(=O)c4ccc(NCC5CCOCC5)c([N+](=O)[O-])c4)c(Oc4cnc5[nH]ccc5c4)c3)CC2)=C(c2ccc(Cl)cc2)C1 + CCN1CCN(Cc2ccc(Nc3ncc(F)c(-c4cc(F)c5nc(C)n(C(C)C)c5c4)n3)nc2)CC1 | 3130 nM | 4240 nM | 3040 nM | 4280 nM | 2040 nM | 96.2% | 81.1% | 88.6% | 86.9% | 92.1% | 96.6% | 99.3% | 109% | 75.4% | 86.5% | 82.5% | 85% | 89.8% | 74.8% | 105% | viability, T/C [23]: 49.7%; viability, T/C [24]: 10.2%; viability, T/C [27]: 66.2%; viability, T/C [28]: 9.92%; viability, T/C [30]: 109%; viability, T/C [31]: 48.1%; viability, T/C [32]: 9.29%; viability, T/C [33]: 94.9%; viability, T/C [34]: 94.1%; viability, T/C [35]: 64.1%; viability, T/C [36]: 9.61%; viability, T/C [37]: 78.8%; viability, T/C [38]: 77.9%; viability, T/C [39]: 32.9%; viability, T/C [40]: 5.14%
CCCS(=O)(=O)Nc1ccc(F)c(C(=O)c2c[nH]c3ncc(-c4ccc(Cl)cc4)cc23)c1F + CCN1CCN(Cc2ccc(Nc3ncc(F)c(-c4cc(F)c5nc(C)n(C(C)C)c5c4)n3)nc2)CC1 | > 10000 nM | > 10000 nM | > 10000 nM | > 10000 nM | 5030 nM | 89.8% | 88.3% | 104% | 91.1% | 106% | 114% | 102% | 103% | 76.9% | 78.4% | 101% | 124% | 99.1% | 113% | 104% | viability, T/C [23]: 108%; viability, T/C [24]: 88.7%; viability, T/C [27]: 79.5%; viability, T/C [28]: 57.5%; viability, T/C [30]: 117%; viability, T/C [31]: 99.5%; viability, T/C [32]: 51.4%; viability, T/C [33]: 104%; viability, T/C [34]: 98.4%; viability, T/C [35]: 111%; viability, T/C [36]: 64.1%; viability, T/C [37]: 85.7%; viability, T/C [38]: 74.2%; viability, T/C [39]: 66.5%; viability, T/C [40]: 26.2%
COc1c(OCCCN2CCOCC2)ccc2c3n(c(=NC(=O)c4cnc(N)nc4)nc12)CCN3 + CCN1CCN(Cc2ccc(Nc3ncc(F)c(-c4cc(F)c5nc(C)n(C(C)C)c5c4)n3)nc2)CC1 | 145 nM | 109 nM | 91.7 nM | 111 nM | 75.4 nM | 78.6% | 66.9% | 73.5% | 54.7% | 78.4% | 50.1% | 86.8% | 50.8% | 59.7% | 49% | 20.9% | 3.88% | 21.9% | 3.58% | 16.1% | viability, T/C [1]: 101%; viability, T/C [2]: 79.4%; viability, T/C [5]: 93%; viability, T/C [6]: 85.6%; viability, T/C [9]: 109%; viability, T/C [10]: 93.8%; viability, T/C [30]: 3.39%; viability, T/C [13]: 80.6%; viability, T/C [14]: 98.7%; viability, T/C [33]: 21.2%; viability, T/C [34]: 6.79%; viability, T/C [17]: 75%; viability, T/C [18]: 73.6%; viability, T/C [37]: 21%; viability, T/C [38]: 7.2%
